Measured values taken from patent US10160755B2 (Plexxikon Inc., priority 2015, dated 2018).

How the values were obtained:
[1] = target: T1, FLT3-ITD (Homo sapiens, UniProt P36888); test: FLT3-ITD biochemical kinase assay (AlphaScreen)
T1 construct: FLT3-ITD; Invitrogen #PV6190
T1 sequence (P36888 1-993): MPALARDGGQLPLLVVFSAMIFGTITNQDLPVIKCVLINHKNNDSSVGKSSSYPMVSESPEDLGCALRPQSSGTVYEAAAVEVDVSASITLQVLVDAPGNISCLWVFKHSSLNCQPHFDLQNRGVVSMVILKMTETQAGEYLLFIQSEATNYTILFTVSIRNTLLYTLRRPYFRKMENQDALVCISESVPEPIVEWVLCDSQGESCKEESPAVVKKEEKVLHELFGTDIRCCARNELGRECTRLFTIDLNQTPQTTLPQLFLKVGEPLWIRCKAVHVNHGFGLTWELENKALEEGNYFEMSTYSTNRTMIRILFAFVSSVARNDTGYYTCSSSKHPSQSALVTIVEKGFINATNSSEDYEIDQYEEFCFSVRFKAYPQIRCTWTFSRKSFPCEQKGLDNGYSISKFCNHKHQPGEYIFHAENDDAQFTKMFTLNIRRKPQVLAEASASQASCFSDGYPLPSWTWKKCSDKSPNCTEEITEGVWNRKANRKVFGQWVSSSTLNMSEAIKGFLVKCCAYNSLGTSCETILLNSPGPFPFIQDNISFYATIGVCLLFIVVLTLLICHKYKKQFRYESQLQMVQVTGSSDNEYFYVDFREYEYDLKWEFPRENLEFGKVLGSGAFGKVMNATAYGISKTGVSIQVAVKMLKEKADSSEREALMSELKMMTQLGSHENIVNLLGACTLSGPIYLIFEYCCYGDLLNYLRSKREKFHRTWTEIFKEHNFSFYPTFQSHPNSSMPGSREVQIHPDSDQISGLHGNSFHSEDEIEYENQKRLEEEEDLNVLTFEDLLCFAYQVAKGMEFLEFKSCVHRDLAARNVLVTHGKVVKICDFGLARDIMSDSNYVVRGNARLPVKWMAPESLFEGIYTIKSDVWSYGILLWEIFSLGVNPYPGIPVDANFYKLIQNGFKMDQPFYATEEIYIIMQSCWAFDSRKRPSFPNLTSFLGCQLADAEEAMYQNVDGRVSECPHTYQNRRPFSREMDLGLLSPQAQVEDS
Text: (§1) In order to determine the effect of compounds on FLT3 catalytic activity, kinase assays using recombinant enzymes and AlphaScreen® technology have been established. When the kinases are catalytically active, they phosphorylate a biotinylated peptide substrate on tyrosine residues. Using AlphaScreen® technology, the ability of the compounds to affect the catalytic activity of the kinases can be measured quantitatively. The peptide substrate is immobilized by the AlphaScreen® Streptavidin Donor beads and, upon phosphorylation by a tyrosine kinase, can bind to AlphaScreen® Anti-Phosphotyrosine (PY20) Acceptor beads. Upon excitation of these beads with laser light at 680 nm, singlet oxygen is produced. This singlet oxygen is rapidly quenched, unless the AlphaScreen® Anti-Phosphotyrosine (PY20) Acceptor beads are in close proximity, in which case a proximity signal can be measured at 580 nm. In the presence of catalytic activity, there is a very strong proximity signal. Selective kinase inhibitors affect a decrease in this proximity signal through a decrease in tyrosine phosphorylation of the peptide substrate.
(§2) Substrate • Poly (Glu4-Tyr) Peptide, biotin conjugate [Biotin-GG(EEEEY)10EE (SEQ ID NO: 4)] • UBI/Millipore #12-440 • Final concentration=30 nM
(§3) Adenosine Triphosphate (ATP) • Sigma #A-3377 • Final concentration for IC50 determination=10 μM (FLT3-D835Y) or 100 μM (FLT3 or FLT3-ITD) • Detection Reagent • AlphaScreen® Phosphotyrosine (PY20) Assay Kit • Perkin-Elmer #6760601M • Final concentration=10 μg/mL
(§4) Centrifuge 1 minute, shake to mix, and incubate as follows:
(§5) • Mix Streptavidin Donor beads at 6× final concentration in Stop/Detection buffer. • Add 5 μL Streptavidin Donor beads to the reaction plate. Centrifuge 1 minute, shake to mix, and incubate at room temperature for 20 minutes. • Mix Anti-Phosphotyrosine (PY20) Acceptor beads at 6× final concentration in Stop/Detection buffer. • Add 5 μL Anti-Phosphotyrosine (PY20) beads to the reaction plate. • Centrifuge 1 minute, shake to mix, and incubate at room temperature for 60 minutes. • Read plate on Wallac EnVision™ 2103 Multilabel Reader. In Vivo Model System Testing

[2] = target: T2, FLT3-D835Y (Homo sapiens, UniProt P36888, D835Y); test: FLT3-D835Y biochemical kinase assay (AlphaScreen)
T2 construct: purchased Invitrogen PV3967
T2 sequence (P36888 27-993 D835Y): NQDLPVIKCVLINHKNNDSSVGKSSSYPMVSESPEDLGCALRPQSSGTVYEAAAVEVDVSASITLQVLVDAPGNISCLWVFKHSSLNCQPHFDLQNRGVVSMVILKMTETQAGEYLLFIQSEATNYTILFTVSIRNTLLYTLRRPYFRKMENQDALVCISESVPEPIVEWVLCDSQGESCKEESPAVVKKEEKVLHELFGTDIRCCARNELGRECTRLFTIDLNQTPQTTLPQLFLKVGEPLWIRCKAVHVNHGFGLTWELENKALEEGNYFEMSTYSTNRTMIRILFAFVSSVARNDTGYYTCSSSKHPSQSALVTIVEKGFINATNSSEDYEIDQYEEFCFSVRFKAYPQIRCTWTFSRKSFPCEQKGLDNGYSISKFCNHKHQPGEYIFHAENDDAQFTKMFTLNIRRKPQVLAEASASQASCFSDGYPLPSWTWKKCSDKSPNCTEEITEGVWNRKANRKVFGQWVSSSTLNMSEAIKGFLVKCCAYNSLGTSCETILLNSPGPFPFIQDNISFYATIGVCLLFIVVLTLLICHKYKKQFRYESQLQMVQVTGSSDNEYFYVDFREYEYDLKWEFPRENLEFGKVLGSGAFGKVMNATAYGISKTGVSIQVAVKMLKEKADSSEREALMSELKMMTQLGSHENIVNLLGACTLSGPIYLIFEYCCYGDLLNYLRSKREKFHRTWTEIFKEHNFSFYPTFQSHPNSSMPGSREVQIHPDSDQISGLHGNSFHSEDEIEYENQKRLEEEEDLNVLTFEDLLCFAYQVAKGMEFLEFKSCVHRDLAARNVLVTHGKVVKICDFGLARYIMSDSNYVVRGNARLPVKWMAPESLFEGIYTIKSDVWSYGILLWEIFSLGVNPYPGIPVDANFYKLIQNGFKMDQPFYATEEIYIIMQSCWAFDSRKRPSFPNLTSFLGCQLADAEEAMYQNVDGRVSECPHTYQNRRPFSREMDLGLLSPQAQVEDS
Text: as §1, §2, §3, §4, §5

Row | IC50 [1] | IC50 [2] | Compound
1 | 0.0001 to 1 µM | 0.0001 to 1 µM | CC(C)(C)n1cnc2ccc(-c3c[nH]c4ncc(-c5ccc(S(=O)(=O)N6CCCC6)cc5)nc34)cc21 [P-239, 7-(3-tert-butylbenzimidazol-5-yl)-2-(4-pyrrolidin-1-ylsulfonylphenyl)-5H-pyrrolo[2,3-b]pyrazine]
2 | 0.0001 to 1 µM | 0.0001 to 1 µM | COc1cc(-c2cnc3[nH]cc(-c4ccc5ncn(C(C)(C)C)c5c4)c3n2)cc(OC)n1 [P-194, 7-(3-tert-butylbenzimidazol-5-yl)-2-(2,6-dimethoxy-4-pyridyl)-5H-pyrrolo[2,3-b]pyrazine]
3 | 0.0001 to 1 µM | 0.0001 to 1 µM | COc1cc(-c2cnc3[nH]cc(-c4ccc5ncn(C(C)(C)C)c5c4)c3c2)cc(OC)n1 [P-196, 1-tert-butyl-6-[5-(2,6-dimethoxy-4-pyridyl)-1H-pyrrolo[2,3-b]pyridin-3-yl]benzimidazole]
4 | 0.0001 to 1 µM | 0.0001 to 1 µM | CC(C)(C)n1cnc2ccc(-c3c[nH]c4ncc(-c5cnc(NC6CC6)nc5)nc34)cc21 [P-362, 5-[7-(3-tert-butylbenzimidazol-5-yl)-5H-pyrrolo[2,3-b]pyrazin-2-yl]-N-cyclopropyl-pyrimidin-2-amine]
5 | 0.0001 to 1 µM | 0.0001 to 1 µM | O=C(C1CC1)N1CC=C(c2cnc3[nH]cc(-c4ccc5c(c4)N(CC(F)(F)F)CCO5)c3n2)C1 [P-190]
6 | 0.0001 to 1 µM | 0.0001 to 1 µM | COc1cc(-c2cnc3[nH]cc(-c4ccc5c(c4)N(CC(F)(F)F)CCO5)c3n2)ccn1 [P-188, 6-(2-(2-methoxypyridin-4-yl)-5H-pyrrolo[2,3-b]pyrazin-7-yl)-4-(2,2,2-trifluoroethyl)-3,4-dihydro-2H-benzo[b][1,4]oxazine]
7 | 0.0001 to 1 µM | 0.0001 to 1 µM | Fc1ccc(-n2cnc3ccc(-c4c[nH]c5ncc(-c6cccc(OC(F)(F)F)c6)cc45)cc32)cc1Cl [P-211, 1-(3-chloro-4-fluoro-phenyl)-6-[5-[3-(trifluoromethoxy)phenyl]-1H-pyrrolo[2,3-b]pyridin-3-yl]benzimidazole]
8 | 0.0001 to 1 µM | 0.0001 to 1 µM | Cc1cc(-c2cnc3[nH]cc(-c4ccc5ncn(C(C)(C)C)c5c4)c3n2)cnc1C#N [P-355, 5-[7-(3-tert-butylbenzimidazol-5-yl)-5H-pyrrolo[2,3-b]pyrazin-2-yl]-3-methyl-pyridine-2-carbonitrile]

Second part, the compound before the results:

Row | Compound | IC50 [1] | IC50 [2]
9 | COc1cc(-c2cnc3[nH]cc(-c4ccc5ncn(C)c5c4)c3n2)cc(OC)n1 [P-157, 2-(2,6-dimethoxy-4-pyridyl)-7-(3-methylbenzimidazol-5-yl)-5H-pyrrolo[2,3-b]pyrazine] | 0.0001 to 1 µM | 0.0001 to 1 µM
10 | Cn1cnc2ccc(-c3c[nH]c4ncc(-c5cccc(CC(=O)O)c5)cc34)cc21 [P-185, 2-[3-[3-(3-methylbenzimidazol-5-yl)-1H-pyrrolo[2,3-b]pyridin-5-yl]phenyl]acetic acid] | 0.0001 to 1 µM | 0.0001 to 1 µM
11 | c1cc(-c2cnc3[nH]cc(-c4ccc5ncsc5c4)c3n2)cc(N2CCOCC2)c1 [P-163, 4-[3-[7-(1,3-benzothiazol-6-yl)-5H-pyrrolo[2,3-b]pyrazin-2-yl]phenyl]morpholine] | 0.0001 to 1 µM | 0.0001 to 1 µM
12 | CN(c1cccc(-c2cnc3[nH]cc(-c4ccc5ncsc5c4)c3n2)c1)S(C)(=O)=O [P-167, N-[3-[7-(1,3-benzothiazol-6-yl)-5H-pyrrolo[2,3-b]pyrazin-2-yl]phenyl]-N-methyl-methanesulfonamide] | 0.0001 to 1 µM | 0.0001 to 1 µM
13 | FC(F)(F)Cn1cc(-c2cnc3[nH]cc(-c4ccc5ncsc5c4)c3n2)cn1 [P-166, 6-[2-[1-(2,2,2-trifluoroethyl)pyrazol-4-yl]-5H-pyrrolo[2,3-b]pyrazin-7-yl]-1,3-benzothiazole] | 0.0001 to 1 µM | 0.0001 to 1 µM
14 | COc1cc(-c2cnc3[nH]cc(-c4ccc5ncn(C)c5c4)c3n2)cc(C)n1 [P-180, 2-(2-methoxy-6-methyl-4-pyridyl)-7-(3-methylbenzimidazol-5-yl)-5H-pyrrolo[2,3-b]pyrazine] | 0.0001 to 1 µM | 0.0001 to 1 µM
15 | O=C(O)Cc1cccc(-c2cnc3[nH]cc(-c4ccc5ncsc5c4)c3n2)c1 [P-164, 2-[3-[7-(1,3-benzothiazol-6-yl)-5H-pyrrolo[2,3-b]pyrazin-2-yl]phenyl]acetic acid] | 0.0001 to 1 µM | 0.0001 to 1 µM
16 | O=C(NC1CC1)c1cccc(-c2cnc3[nH]cc(-c4ccc5ncsc5c4)c3n2)c1 [P-162, 3-[7-(1,3-benzothiazol-6-yl)-5H-pyrrolo[2,3-b]pyrazin-2-yl]-N-cyclopropyl-benzamide] | 0.0001 to 1 µM | 0.0001 to 1 µM
17 | O=S1(=O)CCCN1c1cccc(-c2cnc3[nH]cc(-c4ccc5ncsc5c4)c3n2)c1 [P-170, 2-[3-[7-(1,3-benzothiazol-6-yl)-5H-pyrrolo[2,3-b]pyrazin-2-yl]phenyl]-1,2-thiazolidine 1,1-dioxide] | 0.0001 to 1 µM | 0.0001 to 1 µM
18 | COc1cc(-c2cnc3[nH]cc(-c4ccc5c(c4)N(C(C)C)CCO5)c3n2)ccn1 [P-187, 4-isopropyl-6-[2-(2-methoxy-4-pyridyl)-5H-pyrrolo[2,3-b]pyrazin-7-yl]-2,3-dihydro-1,4-benzoxazine] | 0.0001 to 1 µM | 0.0001 to 1 µM
19 | COc1cnc2[nH]cc(-c3ccc4c(c3)ncn4C)c2c1 [P-102, 5-methoxy-3-(1-methylbenzimidazol-5-yl)-1H-pyrrolo[2,3-b]pyridine] | 10 to 200 µM | 1 to 10 µM
20 | COc1cc(-c2cnc3[nH]cc(-c4ccc5ncn(CC(F)(F)F)c5c4)c3c2)ccn1 [P-108, 5-(2-methoxy-4-pyridyl)-3-[3-(2,2,2-trifluoroethyl)benzimidazol-5-yl]-1H-pyrrolo[2,3-b]pyridine] | 0.0001 to 1 µM | 0.0001 to 1 µM
